Reference: patent US8212031B2, “Pyrrolotriazine kinase inhibitors” (Bristol-Myers Squibb Company, priority 2008, dated 2012)

Target: IGF1-receptor (Homo sapiens, UniProt P08069)
Experiment: IGF1-Receptor Tyrosine Kinase Assay
Type: biochemical
Details: in vitro kinase assay; ATP 25 μM; FL-peptide 1.5 μM; IGF1-Receptor 14 nM; 60 min room temperature; Caliper LabChip 3000; read-out: IGF1R kinase IC50
Experimental: A IGF1-Receptor Tyrosine Kinase Assay
The assays were performed in U-bottom 384-well plates. The final assay volume was 30 μl prepared from 15 μl additions of enzyme and substrates (fluoresceinated IGF1R substrate peptide and ATP) and test compounds in assay buffer (100 mM HEPES pH 7.4, 10 mM MnCl2, 0.015% Brij35 and 4 mM DTT). The reaction was initiated by the combination of IGF1-receptor with substrates and test compounds. The reaction was incubated at room temperature for 60 min. and terminated by adding 30 μl of 35 mM EDTA to each sample. The reaction mixture was analyzed on the Caliper LabChip 3000 by electrophoretic separation of the fluorescent substrate and phosphorylated product Inhibition data were calculated by comparison to no enzyme control reactions for 100% inhibition and vehicle-only reactions for 0% inhibition. The final concentration of reagents in the assays are ATP, 25 μM; FL-peptide, 1.5 μM; IGF1-Receptor, 14 nM; and DMSO, 1.6%. Dose response curves were generated to determine the concentration required inhibiting 50% of kinase activity (IC50). Compounds were dissolved at 10 mM in dimethylsulfoxide (DMSO) and evaluated at eleven concentrations, each in duplicate. IC50 values were derived by non-linear regression analysis.

Chain of IGF1-receptor (P08069 31-1367): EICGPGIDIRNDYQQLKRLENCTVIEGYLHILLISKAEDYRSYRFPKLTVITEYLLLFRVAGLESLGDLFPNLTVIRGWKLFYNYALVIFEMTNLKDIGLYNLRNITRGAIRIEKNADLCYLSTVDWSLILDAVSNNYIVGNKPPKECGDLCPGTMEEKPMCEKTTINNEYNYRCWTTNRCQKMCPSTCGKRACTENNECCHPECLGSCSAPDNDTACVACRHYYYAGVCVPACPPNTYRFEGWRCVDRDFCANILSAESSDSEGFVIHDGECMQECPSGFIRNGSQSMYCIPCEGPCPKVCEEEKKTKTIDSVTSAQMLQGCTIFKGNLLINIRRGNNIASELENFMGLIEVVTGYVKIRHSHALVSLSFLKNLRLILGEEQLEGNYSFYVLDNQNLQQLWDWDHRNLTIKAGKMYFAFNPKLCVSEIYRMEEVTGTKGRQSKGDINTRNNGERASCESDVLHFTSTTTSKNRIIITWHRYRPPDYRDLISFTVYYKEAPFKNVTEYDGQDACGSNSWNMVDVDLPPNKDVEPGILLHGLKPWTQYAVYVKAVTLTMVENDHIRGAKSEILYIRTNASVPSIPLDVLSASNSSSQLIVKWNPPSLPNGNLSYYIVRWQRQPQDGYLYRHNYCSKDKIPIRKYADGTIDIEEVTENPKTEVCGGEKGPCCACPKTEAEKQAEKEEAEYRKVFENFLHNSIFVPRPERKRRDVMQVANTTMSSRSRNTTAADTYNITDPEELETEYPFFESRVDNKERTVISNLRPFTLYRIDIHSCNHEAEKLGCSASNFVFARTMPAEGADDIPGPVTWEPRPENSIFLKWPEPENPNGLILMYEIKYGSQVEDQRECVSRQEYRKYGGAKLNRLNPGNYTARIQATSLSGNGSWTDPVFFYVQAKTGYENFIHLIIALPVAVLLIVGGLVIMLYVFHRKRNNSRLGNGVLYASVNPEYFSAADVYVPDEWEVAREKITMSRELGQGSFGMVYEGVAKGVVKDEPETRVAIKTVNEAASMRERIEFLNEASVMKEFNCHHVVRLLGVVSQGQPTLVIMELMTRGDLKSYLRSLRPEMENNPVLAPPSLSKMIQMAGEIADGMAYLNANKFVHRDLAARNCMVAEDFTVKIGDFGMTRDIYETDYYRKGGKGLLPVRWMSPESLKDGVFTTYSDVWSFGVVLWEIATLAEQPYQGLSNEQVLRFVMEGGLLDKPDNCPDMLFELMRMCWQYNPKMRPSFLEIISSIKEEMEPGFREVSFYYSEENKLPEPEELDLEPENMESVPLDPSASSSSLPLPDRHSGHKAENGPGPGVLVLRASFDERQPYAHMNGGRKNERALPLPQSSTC

| IC50 [nM] | Compound |
| --- | --- |
| 20 | O=C(Nc1ccc(F)nc1)N1CCCCN1c1nc(Nc2cc(C3CC3)n[nH]2)c2cccn2n1 [Example 2] |
| 2 | O=C(Nc1nccs1)N1CCCCN1c1nc(Nc2cc(C3CC3)n[nH]2)c2cccn2n1 [Example 3] |
| 62 | O=C(c1nccs1)N1CCCCN1c1nc(Nc2cc(C3CC3)n[nH]2)c2cccn2n1 [Example 4] |
